Measurements: patent publication US20120172369A1 (priority 2009, published 2012)
Where two headings read alike, the source gives them in different places.

Target: T1, human DGAT1 enzyme (Homo sapiens, UniProt O75907)
T1 construct: made in house; host or cells: Sf9 insect cells (microsomal membranes)
T1 sequence (O75907 1-488): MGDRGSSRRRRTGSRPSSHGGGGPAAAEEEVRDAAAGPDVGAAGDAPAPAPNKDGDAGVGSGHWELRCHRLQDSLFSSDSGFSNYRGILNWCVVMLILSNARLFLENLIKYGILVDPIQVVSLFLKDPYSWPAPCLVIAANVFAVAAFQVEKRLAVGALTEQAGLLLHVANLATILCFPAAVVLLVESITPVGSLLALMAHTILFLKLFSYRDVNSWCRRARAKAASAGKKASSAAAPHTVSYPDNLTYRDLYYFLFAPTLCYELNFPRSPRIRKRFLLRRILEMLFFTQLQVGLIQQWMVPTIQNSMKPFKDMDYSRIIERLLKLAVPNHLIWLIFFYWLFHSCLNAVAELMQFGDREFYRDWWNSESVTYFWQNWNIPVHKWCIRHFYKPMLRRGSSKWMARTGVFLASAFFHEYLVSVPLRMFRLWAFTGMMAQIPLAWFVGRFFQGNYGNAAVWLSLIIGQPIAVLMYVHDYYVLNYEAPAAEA
Test: in vitro DGAT1 inhibition assay (microsomes, [14C]-palmitoyl-CoA, SPA beads)
Assay type: biochemical
Method: The in vitro assay to identify DGAT1 inhibitors uses human DGAT1 enzyme expressed in Sf9 insect cells prepared as microsomes. The reaction was initiated by the addition of the combined substrates 1,2-dioleoyl-sn-glycerol and [^14C]-palmitoyl-Co A and incubated with test compounds and microsomal membranes for 2 hours at room temperature. The assay was stopped by adding 0.5 mg wheat germ agglutinin beads in assay buffer with 1% Brij-35 and 1% 3-cholamidopropyldimethyl-ammonio-1-propane sulfonate. Plates were sealed with TopSeal and incubated for 18 hours to allow the radioactive triglyceride product to come into proximity with the bead. Plates were read on a TopCount instrument.
Percent inhibition was calculated as the percent of (test compound inhibition minus non-specific binding) relative to (total binding minus non-specific binding). IC50 values were determined by curve fitting the data to a Sigmoidal dose-response in GraphPad Prism utilizing the following equation:
Y=A+(B−A)/(1+10̂((Log IC50−X))),
where A and B are the bottom and top of the curve (highest and lowest inhibition), respectively, and X is the logarithm of concentration.

[1] = human DGAT1 expressed in Sf9 insect cells, microsomes, 2 hours at room temperature, read-out: IC50

| IC50 [1] [nM] | Compound | IC50 [nM] |
| --- | --- | --- |
| 600 | Cc1c(C(=O)Nc2ccc(N3CC[C@@H](COc4ccc(C(=O)O)cc4)C3)nc2)oc2ccc(-c3ccccc3)cc12 [Example 80, (R)-4-((1-(5-(3-methyl-5-phenylbenzofuran-2-carboxamido)pyridin-2-yl)pyrrolidin-3-yl)methoxy)benzoic acid] |  |
| 589 | Cc1c(C(=O)Nc2ccc(N3CCN(C(=O)C(O)C(F)(F)F)CC3)nc2)oc2ccccc12 (stereo not drawn) [Example 3, 3-methyl-N-(6-(4-(3,3,3-trifluoro-2-hydroxypropanoyl)piperazin-1-yl)pyridin-3-yl)benzofuran-2-carboxamide] |  |
| 95 | O=C(Nc1ccc(N2CCN(C(=O)Nc3ccccc3F)CC2)nc1)c1coc2ccccc12 [Example 11, 4-(5-(benzofuran-3-carboxamido)pyridin-2-yl)-N-(2-fluorophenyl)piperazine-1-carboxamide] |  |
| 56 | Cc1c(C(=O)Nc2ccc(N3CCC(COc4cccc(C(=O)O)c4)CC3)nc2)oc2ccc(Cc3ccccc3)cc12 [Example 93, 3-((1-(5-(5-benzyl-3-methylbenzofuran-2-carboxamido)pyridin-2-yl)piperidin-4-yl)methoxy)benzoic acid] |  |
| 282 | Cc1c(C(=O)Nc2ccc(N3CCN(C(=O)Nc4ccccc4F)CC3)nc2)oc2cc(-c3ccccc3)ccc12 [Example 13, N-(2-fluorophenyl)-4-(5-(3-methyl-6-phenylbenzofuran-2-carboxamido)pyridin-2-yl)piperazine-1-carboxamide] |  |
| 104 | Cc1c(C(=O)Nc2ccc(N3CCN(C(=O)Nc4ccccc4F)CC3)nc2)oc2ccc(-c3ncco3)cc12 [Example 82, N-(2-fluorophenyl)-4-(5-(3-methyl-5-(oxazol-2-yl)benzofuran-2-carboxamido)pyridin-2-yl)piperazine-1-carboxamide] |  |
| 78 | Cc1c(C(=O)Nc2ccc(N3CCN(C(=O)Nc4ccccc4F)CC3)nc2)sc2ccc(-c3ccc(F)cc3)cc12 [Example 55, N-(2-fluorophenyl)-4-(5-(5-(4-fluorophenyl)-3-methylbenzo[b]thiophene-2-carboxamido)pyridin-2-yl)piperazine-1-carboxamide] |  |
| 93 | Cc1c(C(=O)Nc2ccc(N3CCC(COc4cccc(C(=O)O)c4)CC3)nc2)oc2ccc(-c3cccc(F)c3)cc12 [Example 33, 3-((1-(5-(5-(3-fluorophenyl)-3-methylbenzofuran-2-carboxamido)pyridin-2-yl)piperidin-4-yl)methoxy)benzoic acid] |  |

Second part, the compound before the results:

| Compound | IC50 [1] [nM] | IC50 [nM] |
| --- | --- | --- |
| Cc1ccc2c(C)c(C(=O)Nc3ccc(N4CCC(OCc5cccc(C(=O)O)c5)CC4)nc3)oc2c1C [Example 87, 3-((1-(5-(3,6,7-trimethylbenzofuran-2-carboxamido)pyridin-2-yl)piperidin-4-yloxy)methyl)benzoic acid] | 22 |  |
| Cc1c(C(=O)Nc2ccc(N3CCC(OCc4cccc(C(=O)O)c4)CC3)nc2)oc2ccc(-c3ncco3)cc12 [Example 86, 3-((1-(5-(3-methyl-5-(oxazol-2-yl)benzofuran-2-carboxamido)pyridin-2-yl)piperidin-4-yloxy)methyl)benzoic acid] | 305 |  |
| Cc1c(C(=O)Nc2ccc(N3CCN(C(=O)Nc4ccccc4C(=O)O)CC3)nc2)oc2ccc(-c3ccc(F)cc3)cc12 [Example 36, 2-(4-(5-(5-(4-fluorophenyl)-3-methylbenzofuran-2-carboxamido)pyridin-2-yl)piperazine-1-carboxamido)benzoic acid] | 90 |  |
| Cc1c(C(=O)Nc2ccc(N3CCC(COc4cccc(C(=O)O)c4)CC3)nc2)oc2ccc(-c3ccccc3F)cc12 [Example 26, 3-((1-(5-(5-(2-fluorophenyl)-3-methylbenzofuran-2-carboxamido)pyridin-2-yl)piperidin-4-yl)methoxy)benzoic acid] | 59 |  |
| Cc1c(C(=O)Nc2ccc(N3CCN(C(=O)Nc4ccccc4F)CC3)nc2)oc2c(C)cccc12 [Example 8, 4-(5-(3,7-dimethylbenzofuran-2-carboxamido)pyridin-2-yl)-N-(2-fluorophenyl)piperazine-1-carboxamide] |  | 48 |
| O=C(Nc1ccc(N2CCN(C(=O)Nc3ccccc3F)CC2)nc1)c1csc2ccccc12 [Example 10, 4-(5-(benzo[b]thiophene-3-carboxamido)pyridin-2-yl)-N-(2-fluorophenyl)piperazine-1-carboxamide] | 37 |  |
| ethyl 2-(4-(5-(5-(4-methoxyphenyl)-3-methylbenzofuran-2-carboxamido)pyridin-2-yl)piperazine-1-carboxamido)benzoate [Example 66] | 454 |  |
| COc1ccccc1-c1ccc2oc(C(=O)Nc3ccc(N4CCC(OCc5cccc(C(=O)O)c5)CC4)nc3)c(C)c2c1 [Example 73, 3-((1-(5-(5-(2-methoxyphenyl)-3-methylbenzofuran-2-carboxamido)pyridin-2-yl)piperidin-4-yloxy)methyl)benzoic acid] | 108 |  |
| CCOC(=O)c1ccccc1NC(=O)N1CCN(c2ccc(NC(=O)c3oc4ccc(-c5ccc(OC)cc5)cc4c3C)cn2)CC1 [Example 65, ethyl 2-(4-(5-(5-(4-methoxyphenyl)-3-methylbenzofuran-2-carboxamido)pyridin-2-yl)piperazine-1-carboxamido)benzoate] | 454 |  |
| Cc1c(C(=O)Nc2ccc(N3CCN(C(=O)Nc4ccccc4F)CC3)nc2)oc2c(F)cccc12 [Example 9, 4-(5-(7-fluoro-3-methylbenzofuran-2-carboxamido)pyridin-2-yl)-N-(2-fluorophenyl)piperazine-1-carboxamide] | 49 |  |
| Cc1c(C(=O)Nc2ccc(N3CCN(C(=O)Nc4ccccc4F)CC3)nc2)oc2ccc(-c3ccc(F)cc3)cc12 [Example 40, N-(2-fluorophenyl)-4-(5-(5-(4-fluorophenyl)-3-methylbenzofuran-2-carboxamido)pyridin-2-yl)piperazine-1-carboxamide] | 100 |  |
| Cc1c(C(=O)Nc2ccc(N3CCN(C(=O)Nc4ccccc4F)CC3)nc2)sc2ccc(-c3ccccc3)cc12 [Example 46, N-(2-fluorophenyl)-4-(5-(3-methyl-5-phenylbenzo[b]thiophene-2-carboxamido)pyridin-2-yl)piperazine-1-carboxamide] | 84 |  |
| COc1ccccc1-c1ccc2oc(C(=O)Nc3ccc(N4CCN(C(=O)Nc5ccccc5C(=O)O)CC4)nc3)c(C)c2c1 [Example 70] | 1090 |  |
| Cc1c(C(=O)Nc2ccc(N3CCN(C(=O)Nc4ccccc4F)CC3)nc2)oc2ccc(-c3cccc(F)c3)cc12 [Example 27, N-(2-fluorophenyl)-4-(5-(5-(3-fluorophenyl)-3-methylbenzofuran-2-carboxamido)pyridin-2-yl)piperazine-1-carboxamide] | 316 |  |
| Cc1c(C(=O)Nc2ccc(N3CCN(C(=O)Nc4ccccc4F)CC3)nc2)sc2ccc(-c3cccc(F)c3)cc12 [Example 54, N-(2-fluorophenyl)-4-(5-(5-(3-fluorophenyl)-3-methylbenzo[b]thiophene-2-carboxamido)pyridin-2-yl)piperazine-1-carboxamide] | 220 |  |
| Cc1c(C(=O)Nc2ccc(N3CC[C@H](COc4ccc(C(=O)O)cc4)C3)nc2)oc2ccc(-c3ccccc3)cc12 [Example 81, (S)-4-((1-(5-(3-methyl-5-phenylbenzofuran-2-carboxamido)pyridin-2-yl)pyrrolidin-3-yl)methoxy)benzoic acid] | 1060 |  |
